A short description of this data set: physchem. Particulars: 66% dmf/h2o.

For orientation: pKa means the pH at which an ionisable group is half protonated. Read a low pKa as a group that gives up its proton readily.

Molecules are shown by their SMILES.

`NCCc1ncccc1F` [Example 417, 2-aminoethyl-3-fluoropyridine] registered a pKa of 9.56.

The values above are taken from patent EP0540143B1, “Compounds and methods for inhibition of HIV and related viruses” (priority 1991, dated 1993).
